Source: patent US20210379543A1, “PROCESS FOR PRODUCING A NANO-TAN IIA MICROEMULSION SYSTEM” (Wakamono Corporation, priority 2021, published 2021)

Test: Water solubility / water-dispersability, including FIG. 1 comparison
Format: physicochemical
Details: dispersed in water, bottle A vs bottle B

Water-dispersability (FIG. 1): insoluble in water
SMILES: Cc1coc2c1C(=O)C(=O)c1c-2ccc2c1CCCC2(C)C [known 90% Tan IIA, Tanshinone IIA]
